According to the NIST ThermoML archive (doi:10.1016/j.jct.2006.01.016):

Columns and labels:
[1] = 101 kPa, Liquid
[2] = xn = mol fraction of the nth substance listed; details: 101 kPa, Liquid

CCCCn1cc[n+](C)c1.F[B-](F)(F)F [1-butyl-3-methylimidazolium tetrafluoroborate]
[1]
Details | mass density [kg/m3] | speed of sound [m/s]
298.15 K | 1201.42 | 1576
303.15 K | 1197.88 | 1555.5
308.15 K | 1194.35 | 1543.9
313.15 K | 1190.82 | 1532.5
318.15 K | 1187.29 | 1521.2

CC#N [acetonitrile]
[1]
Details | mass density [kg/m3] | speed of sound [m/s]
298.15 K | 776.533 | 1278.6
303.15 K | 771.116 | 1258.7
308.15 K | 765.66 | 1238.7
313.15 K | 760.162 | 1218.5
318.15 K | 754.462 | 1198.3

CC#N [acetonitrile] + CCCCn1cc[n+](C)c1.F[B-](F)(F)F
[2], x2 = 0
Details | mass density [kg/m3] | speed of sound [m/s]
298.15 K | 776.533 | 1278.6
303.15 K | 771.116 | 1258.7
308.15 K | 765.66 | 1238.7
313.15 K | 760.162 | 1218.5
318.15 K | 754.462 | 1198.3

CCCCn1cc[n+](C)c1.F[B-](F)(F)F [1-butyl-3-methylimidazolium tetrafluoroborate] + CO
[2]
Details | mass density, 298.15 K [kg/m3] | mass density, 303.15 K [kg/m3] | mass density, 308.15 K [kg/m3] | mass density, 313.15 K [kg/m3] | mass density, 318.15 K [kg/m3] | speed of sound, 298.15 K [m/s] | speed of sound, 303.15 K [m/s] | speed of sound, 308.15 K [m/s] | speed of sound, 313.15 K [m/s] | speed of sound, 318.15 K [m/s]
x1 = 0.0086 | 805.151 | 800.482 | 795.796 | 791.081 | 786.347 | – | 1105.3 | 1089.3 | 1073.5 | 1057.8
x1 = 0.0473 | 871.093 | 866.582 | 862.063 | 857.529 | 852.979 | – | 1162.4 | 1147.8 | 1133.1 | 1118.6
x1 = 0.0989 | 935.734 | 931.386 | 927.032 | 922.668 | 918.304 | – | 1224.6 | 1211 | 1197.5 | 1184
x1 = 0.2027 | 1020.75 | 1016.6 | 1012.46 | 1008.33 | 1004.19 | – | 1321.8 | 1309.2 | 1296.5 | 1284
x1 = 0.3516 | 1090.69 | 1086.81 | 1082.62 | 1079.1 | 1075.21 | 1423.6 | 1411.3 | 1399.1 | – | 1375
x1 = 0.4958 | 1131.97 | 1128.15 | 1124.35 | 1120.99 | 1117.11 | 1477 | 1465 | 1453.1 | 1441.8 | 1430.1
x1 = 0.6961 | 1168.33 | 1164.63 | 1160.96 | 1157.3 | 1153.66 | 1524.1 | 1512.2 | 1500.4 | 1488.8 | 1477.2
x1 = 0.7982 | 1181.54 | 1177.91 | 1174.28 | 1170.67 | 1167.07 | 1541.2 | 1529.5 | 1517.9 | 1506.3 | 1494.8
x1 = 1 | 1201.42 | 1197.88 | 1194.35 | 1190.82 | 1187.29 | 1576 | 1555.5 | 1543.9 | 1532.5 | 1521.2

CO [methanol]
[1]
Details | mass density [kg/m3] | speed of sound [m/s]
298.15 K | 786.531 | –
303.15 K | 781.808 | 1086.4
308.15 K | 777.066 | 1070.1
313.15 K | 772.283 | 1054
318.15 K | 767.474 | 1037.9

CO [methanol] + CCCCn1cc[n+](C)c1.F[B-](F)(F)F
[2], x2 = 0
Details | mass density [kg/m3] | speed of sound [m/s]
298.15 K | 786.531 | –
303.15 K | 781.808 | 1086.4
308.15 K | 777.066 | 1070.1
313.15 K | 772.283 | 1054
318.15 K | 767.474 | 1037.9

CCCCn1cc[n+](C)c1.F[B-](F)(F)F [1-butyl-3-methylimidazolium tetrafluoroborate] + CC#N
[2]
Details | mass density, 298.15 K [kg/m3] | mass density, 303.15 K [kg/m3] | mass density, 308.15 K [kg/m3] | mass density, 313.15 K [kg/m3] | mass density, 318.15 K [kg/m3] | speed of sound, 298.15 K [m/s] | speed of sound, 303.15 K [m/s] | speed of sound, 308.15 K [m/s] | speed of sound, 313.15 K [m/s] | speed of sound, 318.15 K [m/s]
x1 = 0.0103 | 794.416 | 789.093 | 783.745 | 778.368 | 772.971 | 1289.2 | 1269.3 | 1249.6 | 1230 | 1210.3
x1 = 0.0442 | 845.059 | 839.982 | 834.883 | 829.765 | 824.63 | 1315.7 | 1297 | 1278.2 | 1259.5 | 1240.8
x1 = 0.1032 | 913.689 | 908.908 | 904.123 | 899.327 | 894.531 | 1354.8 | 1337.2 | 1319.7 | 1302.3 | 1284.9
x1 = 0.2015 | 994.016 | 989.579 | 985.147 | 980.715 | 976.287 | 1407.7 | 1391.8 | 1375.8 | 1359.6 | 1344.1
x1 = 0.2931 | 1045.58 | 1041.36 | 1037.15 | 1032.94 | 1028.74 | 1445.2 | 1430.2 | 1415.2 | 1400.5 | 1385.8
x1 = 0.3935 | 1086.98 | 1082.93 | 1078.89 | 1074.86 | 1070.84 | 1476.8 | 1462.7 | 1448.6 | 1434.6 | 1420.8
x1 = 0.5352 | 1128.52 | 1124.64 | 1120.78 | 1116.92 | 1113.08 | 1509.2 | 1495.9 | 1482.6 | 1469.7 | 1456.9
x1 = 0.7043 | 1162.31 | 1158.57 | 1154.85 | 1151.13 | 1147.43 | 1535.9 | – | 1511.1 | 1498.8 | 1486.6
x1 = 1 | 1201.42 | 1197.88 | 1194.35 | 1190.82 | 1187.29 | 1576 | 1555.5 | 1543.9 | 1532.5 | 1521.2
